# Results taken from PubChem BioAssay AID1963873 (Molecular Pharmacology Branch, DTP, NCI, 2024).
# System: 276233-004-R-J1-PDC KRAS spheroids with HUVEC/MSC, viability
# Assay: Anticancer human tumor 276233-004-R-J1-PDC patient-derived colon adenocarcinoma cell line growth inhibition [KRAS2]
# Settings: for IC50: curve of first compound; for viability, T/C: stronger effect = lower value
# In short: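 KRAS-mutant tumor cells were grown as spheroids with HUVEC endothelial cells and human MSCs as stroma. Targeted agents were tested alone and with KRAS pathway inhibitors. Doses started at or near clinical Cmax, or 10 microM, descending half-log.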
# [1] = second compound 0.0316 µM, first compound 0.0316 µM
# [2] = second compound 0.0316 µM, first compound 0.1 µM
# [3] = second compound 0.0316 µM, first compound 0.316 µM
# [4] = second compound 0.0316 µM, first compound 1 µM
# [5] = second compound 0.0316 µM, first compound 3.16 µM
# [6] = second compound 0.0316 µM, first compound 10 µM
# [7] = second compound 0.1 µM, first compound 0.0316 µM
# [8] = second compound 0.1 µM, first compound 0.1 µM
# [9] = second compound 0.1 µM, first compound 0.316 µM
# [10] = second compound 0.1 µM, first compound 1 µM
# [11] = second compound 0.1 µM, first compound 3.16 µM
# [12] = second compound 0.1 µM, first compound 10 µM
# [13] = second compound 0.316 µM, first compound 0.0316 µM
# [14] = second compound 0.316 µM, first compound 0.1 µM
# [15] = second compound 0.316 µM, first compound 0.316 µM
# [16] = second compound 0.316 µM, first compound 1 µM
# [17] = second compound 0.316 µM, first compound 3.16 µM
# [18] = second compound 0.316 µM, first compound 10 µM
# [19] = second compound 1 µM, first compound 0.0316 µM
# [20] = second compound 1 µM, first compound 0.1 µM
# [21] = second compound 1 µM, first compound 0.316 µM
# [22] = second compound 1 µM, first compound 1 µM
# [23] = second compound 1 µM, first compound 3.16 µM
# [24] = second compound 1 µM, first compound 10 µM
# [25] = second compound 3.16 µM, first compound 0.0316 µM
# [26] = second compound 3.16 µM, first compound 0.1 µM
# [27] = second compound 3.16 µM, first compound 0.316 µM
# [28] = second compound 3.16 µM, first compound 1 µM
# [29] = second compound 3.16 µM, first compound 3.16 µM
# [30] = second compound 3.16 µM, first compound 10 µM
# [31] = second compound 0.0316 µM, first compound 0.00316 µM
# [32] = second compound 0.0316 µM, first compound 0.01 µM
# [33] = second compound 0.1 µM, first compound 0.00316 µM
# [34] = second compound 0.1 µM, first compound 0.01 µM
# [35] = second compound 0.316 µM, first compound 0.00316 µM
# [36] = second compound 0.316 µM, first compound 0.01 µM
# [37] = second compound 1 µM, first compound 0.00316 µM
# [38] = second compound 1 µM, first compound 0.01 µM
# [39] = second compound 3.16 µM, first compound 0.00316 µM
# [40] = second compound 3.16 µM, first compound 0.01 µM
# 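Further: cells exposed to agents for seven days before viability read.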
# 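Wherever viability, T/C is given: 100% = DMSO vehicle control wells and lower values mean fewer viable cells.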
SMILES,IC50 (second compound 0.0316 µM),IC50 (second compound 0.1 µM),IC50 (second compound 0.316 µM),IC50 (second compound 1 µM),IC50 (second compound 3.16 µM),"viability, T/C [1]","viability, T/C [2]","viability, T/C [3]","viability, T/C [4]","viability, T/C [7]","viability, T/C [8]","viability, T/C [9]","viability, T/C [10]","viability, T/C [13]","viability, T/C [14]","viability, T/C [15]","viability, T/C [19]","viability, T/C [20]","viability, T/C [25]","viability, T/C [26]",other results
CC(C)NCC(C(=O)N1CCN(c2ncnc3c2C(C)CC3O)CC1)c1ccc(Cl)cc1 (stereo not given) + C=CC(=O)N1CCN(c2nc(OCC3CCCN3C)nc3c2CCN(c2cccc4cccc(C)c24)C3)CC1CC#N,> 10 µM,> 10 µM,> 10 µM,> 10 µM,< 0.0316 µM,97.3%,93.5%,84.8%,63.7%,80.6%,81.7%,67.6%,64.6%,66.8%,81.4%,72.8%,60.4%,65.6%,37.6%,46.9%,"viability, T/C [5]: 66.3%; viability, T/C [6]: 64.9%; viability, T/C [11]: 85.4%; viability, T/C [12]: 76.9%; viability, T/C [16]: 65.5%; viability, T/C [17]: 63.2%; viability, T/C [18]: 58.7%; viability, T/C [21]: 65%; viability, T/C [22]: 61.9%; viability, T/C [23]: 64.8%; viability, T/C [24]: 58.4%; viability, T/C [27]: 44%; viability, T/C [28]: 22%; viability, T/C [29]: 32%; viability, T/C [30]: 27.3%"
CCN1CCN(Cc2ccc(Nc3ncc(F)c(-c4cc(F)c5nc(C)n(C(C)C)c5c4)n3)nc2)CC1 + C=CC(=O)N1CCN(c2nc(OCC3CCCN3C)nc3c2CCN(c2cccc4cccc(C)c24)C3)CC1CC#N,> 1 µM,> 1 µM,> 1 µM,> 1 µM,0.0596 µM,87.1%,69.2%,95.5%,112%,86%,81%,97%,96.4%,77.4%,86%,78%,96.5%,87.4%,65.9%,39.6%,"viability, T/C [31]: 102%; viability, T/C [32]: 87%; viability, T/C [33]: 109%; viability, T/C [34]: 86.4%; viability, T/C [35]: 95.1%; viability, T/C [36]: 83.7%; viability, T/C [16]: 90.7%; viability, T/C [37]: 81.4%; viability, T/C [38]: 83.7%; viability, T/C [21]: 66.2%; viability, T/C [22]: 110%; viability, T/C [39]: 56.5%; viability, T/C [40]: 65.8%; viability, T/C [27]: 43.5%; viability, T/C [28]: 26.5%"
CCNC(=O)CC1N=C(c2ccc(Cl)cc2)c2cc(OC)ccc2-n2c(C)nnc21 (stereo not given) + C=CC(=O)N1CCN(c2nc(OCC3CCCN3C)nc3c2CCN(c2cccc4cccc(C)c24)C3)CC1CC#N,> 10 µM,> 10 µM,> 10 µM,> 10 µM,0.189 µM,94.8%,80.9%,63.6%,57.1%,95.1%,81.2%,85.6%,60.2%,94.8%,83.1%,83.3%,80.5%,66.1%,60.3%,59.8%,"viability, T/C [5]: 68.6%; viability, T/C [6]: 62%; viability, T/C [11]: 59.5%; viability, T/C [12]: 62.3%; viability, T/C [16]: 76.2%; viability, T/C [17]: 65.4%; viability, T/C [18]: 63.6%; viability, T/C [21]: 56.2%; viability, T/C [22]: 57.6%; viability, T/C [23]: 56.6%; viability, T/C [24]: 61.2%; viability, T/C [27]: 42%; viability, T/C [28]: 33.7%; viability, T/C [29]: 36.4%; viability, T/C [30]: 38.7%"
Cn1ncnc1[C@H]1c2n[nH]c(=O)c3cc(F)cc(c23)N[C@@H]1c1ccc(F)cc1 + C=CC(=O)N1CCN(c2nc(OCC3CCCN3C)nc3c2CCN(c2cccc4cccc(C)c24)C3)CC1CC#N,> 0.1 µM,> 0.1 µM,> 0.1 µM,> 0.1 µM,> 0.1 µM,97.7%,92.8%,–,–,77.3%,86.3%,–,–,85.5%,91.6%,–,88.9%,110%,65%,72%,"viability, T/C (second compound 0.0316 µM, first compound 0.000316 µM): 111%; viability, T/C (second compound 0.0316 µM, first compound 0.001 µM): 107%; viability, T/C [31]: 88%; viability, T/C [32]: 119%; viability, T/C (second compound 0.1 µM, first compound 0.000316 µM): 107%; viability, T/C (second compound 0.1 µM, first compound 0.001 µM): 113%; viability, T/C [33]: 103%; viability, T/C [34]: 98%; viability, T/C (second compound 0.316 µM, first compound 0.000316 µM): 100%; viability, T/C (second compound 0.316 µM, first compound 0.001 µM): 107%; viability, T/C [35]: 113%; viability, T/C [36]: 115%; viability, T/C (second compound 1 µM, first compound 0.000316 µM): 99%; viability, T/C (second compound 1 µM, first compound 0.001 µM): 118%; viability, T/C [37]: 105%; viability, T/C [38]: 116%; viability, T/C (second compound 3.16 µM, first compound 0.000316 µM): 74.9%; viability, T/C (second compound 3.16 µM, first compound 0.001 µM): 77.6%; viability, T/C [39]: 57.1%; viability, T/C [40]: 52.6%"
